Laboratory results: US20240408215A1, “USE OF DIAZIRINE LINKER FOR DRUG CONJUGATES” (HELMHOLTZ ZENTRUM MUNCHEN - DEUTSCHES FORSCHUNGSZENTRUM FUR …, priority 2021, published 2024)

Test: Pulsed UV light release of 7-hydroxycoumarin in homogenous media, with dark intervals
Assay type: physicochemical
Settings: FIG. 7

release of 7-hydroxycoumarin upon UV light irradiation (water/EtOH/DMSO (1.0:1.0:0.1), UV light pulses, not attached to agarose): efficient release
Compound: [N-]=[N+]=NCCCCCC(=O)OCC1(COc2ccc3ccc(=O)oc3c2)N=N1 [(3-(((2-oxo-2H-chromen-7-yl)oxy)methyl)-3H-diazirin-3-yl)methyl-6-azidohexanoate]
release of 7-hydroxycoumarin in the dark after the light pulse (1-2 minutes in the dark after each pulse): no additional leaking of payload occurs after ending the pulse
